BindingDB's records for doi:10.1021/acs.jmedchem.7b00141 (National Institute of Diabetes and Digestive and Kidney …, 2017)

Columns and labels:
[1] = target: Sodium-dependent noradrenaline transporter (Homo sapiens, UniProt P23975); assay: ChEBML_1661745
Description: Inhibition of [3H]mazindol binding to recombinant human NET expressed in HEK293 cell membranes preincubated for 10 mins followed by radioligand addition measured after 90 mins by micro beta scintillation counting analysis

[2] = target: T1, Sodium-dependent serotonin transporter (Homo sapiens, UniProt P31645); assay: Inhibition of [3H]mazindol binding to recombinant human SERT expressed in HEK293 cell membranes preincubated for 10 mins followed by radioligand addition measured after 90 mins by micro beta scintillation counting analysis
T1 sequence (P31645 whole entry): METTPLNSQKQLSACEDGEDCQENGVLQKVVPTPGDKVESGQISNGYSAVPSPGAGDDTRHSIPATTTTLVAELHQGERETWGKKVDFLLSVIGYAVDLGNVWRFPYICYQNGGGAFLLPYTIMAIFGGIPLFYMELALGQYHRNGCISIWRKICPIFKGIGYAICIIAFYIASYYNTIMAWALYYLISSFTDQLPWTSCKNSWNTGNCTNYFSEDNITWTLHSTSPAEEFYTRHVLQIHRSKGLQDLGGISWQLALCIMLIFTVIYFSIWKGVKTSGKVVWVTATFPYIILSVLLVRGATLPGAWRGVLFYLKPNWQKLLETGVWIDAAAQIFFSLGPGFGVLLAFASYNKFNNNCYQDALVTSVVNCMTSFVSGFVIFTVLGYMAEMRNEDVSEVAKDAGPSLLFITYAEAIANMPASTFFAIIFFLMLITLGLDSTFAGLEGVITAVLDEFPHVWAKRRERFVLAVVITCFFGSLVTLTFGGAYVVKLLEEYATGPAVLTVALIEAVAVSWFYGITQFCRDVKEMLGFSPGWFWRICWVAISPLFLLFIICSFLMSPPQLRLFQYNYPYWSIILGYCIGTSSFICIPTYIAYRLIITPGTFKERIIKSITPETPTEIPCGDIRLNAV

[3] = target: T1, Sodium-dependent serotonin transporter; assay: Inhibition of [125I]RTI-55 binding to recombinant human SERT expressed in HEK293 cell membranes preincubated for 10 mins followed by radioligand addition measured after 90 mins by micro beta scintillation counting analysis

Chain of Sodium-dependent noradrenaline transporter (P23975 whole entry): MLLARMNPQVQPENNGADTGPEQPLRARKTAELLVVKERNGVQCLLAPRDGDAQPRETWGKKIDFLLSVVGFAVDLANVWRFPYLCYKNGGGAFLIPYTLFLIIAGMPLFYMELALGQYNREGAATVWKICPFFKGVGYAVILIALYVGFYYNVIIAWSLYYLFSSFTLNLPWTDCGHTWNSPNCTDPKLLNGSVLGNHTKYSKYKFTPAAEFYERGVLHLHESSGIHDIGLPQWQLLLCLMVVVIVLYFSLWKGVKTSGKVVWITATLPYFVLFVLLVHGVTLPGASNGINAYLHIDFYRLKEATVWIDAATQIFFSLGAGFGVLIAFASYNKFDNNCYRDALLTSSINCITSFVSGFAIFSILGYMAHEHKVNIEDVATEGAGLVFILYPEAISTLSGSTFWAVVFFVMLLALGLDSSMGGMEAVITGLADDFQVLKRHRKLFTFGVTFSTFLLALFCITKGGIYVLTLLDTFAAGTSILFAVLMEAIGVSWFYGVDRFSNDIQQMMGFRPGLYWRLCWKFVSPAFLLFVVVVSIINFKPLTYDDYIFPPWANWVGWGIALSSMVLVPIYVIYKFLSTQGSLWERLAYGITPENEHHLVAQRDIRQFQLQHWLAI

Row | SMILES | Ki [1] [nM] | Ki [2] [nM] | Ki [3] [nM]
1 | COC(=O)[C@H]1[C@@H](c2ccc([125I])cc2)CC2CC[C@H]1N2C | 70 | 1.3 | 
2 | O[C@]1(c2ccc(Cl)cc2)c2ccccc2C2=NCCN21 [Mazanor] |  | 45 | 136
